Experimental data as given in patent US10278911B2, “Compositions containing cyclic peptides and methods of use” (Merck Patent GmbH, priority 2008, dated 2019).
One block for each compound: values may come before it. Non-standard residues stand in square brackets, D forms with d. Residues, ends and D or L forms follow the SMILES beside them.

Columns and labels:
[1] = test system: full thickness skin model (human primary epidermal keratinocytes and human fibroblasts); assay: cDNA-microarray gene expression profile of treated human skin model (PIQOR-skin); assay type: cell-based; settings: 0.5 μM, 4 days incubation
Procedure: The following is a study to determine the gene expression profiles of Cyclo-(Arg-Gly-Asp-DPhe-Acha) (=CPPC 1) treated human skin.
For the analysis of deregulated gene expression induced by substance CPPC 1, treated and control samples from a human skin model are analyzed as follows: • A full thickness skin model (human primary epidermal keratinocytes and human fibroblasts), such as the Phenion® FTSM, commercially available from Phenion GmbH & Co. KG, Düsseldorf, Germany, is used. Cells are not pooled or genetically modified. • Gene expression analysis is carried out with PIQOR™-skin cDNA microarrays, which contains 1312 genes that are involved in target pathways related to stress, inflammation, pigmentation and depigmentation, moisturization, anti-ageing and hair follicle development in humans. For instance, cell cycle, apoptosis, DNA repair, oxidative metabolism, angiogenesis, cell adhesion cell-matrix interactions and signaling. Genes are represented with four replicate spots. • Treatment with CPPC 1 is performed in 0.5 μM concentration (4 days incubation, n=3 per condition). […] Profiling of Gene Expression—Input Genes
A ratio (log 2) value of zero indicates no regulation, whereas positive (log 2) values indicate an upregulation and negative (log 2) values a downregulation of the relevant gene.
The deregulated genes for skin samples treated with 0.5 μM concentration is used for further analysis.

av-beta3/5 = assay: Integrin ligand activity (in vitro studies); assay type: binding
av-beta6 = av-beta6 (Homo sapiens, UniProt P06756+P18564); assay: Integrin ligand activity (in vitro studies); assay type: binding
Sequence of av-beta6 (P06756 31-1048): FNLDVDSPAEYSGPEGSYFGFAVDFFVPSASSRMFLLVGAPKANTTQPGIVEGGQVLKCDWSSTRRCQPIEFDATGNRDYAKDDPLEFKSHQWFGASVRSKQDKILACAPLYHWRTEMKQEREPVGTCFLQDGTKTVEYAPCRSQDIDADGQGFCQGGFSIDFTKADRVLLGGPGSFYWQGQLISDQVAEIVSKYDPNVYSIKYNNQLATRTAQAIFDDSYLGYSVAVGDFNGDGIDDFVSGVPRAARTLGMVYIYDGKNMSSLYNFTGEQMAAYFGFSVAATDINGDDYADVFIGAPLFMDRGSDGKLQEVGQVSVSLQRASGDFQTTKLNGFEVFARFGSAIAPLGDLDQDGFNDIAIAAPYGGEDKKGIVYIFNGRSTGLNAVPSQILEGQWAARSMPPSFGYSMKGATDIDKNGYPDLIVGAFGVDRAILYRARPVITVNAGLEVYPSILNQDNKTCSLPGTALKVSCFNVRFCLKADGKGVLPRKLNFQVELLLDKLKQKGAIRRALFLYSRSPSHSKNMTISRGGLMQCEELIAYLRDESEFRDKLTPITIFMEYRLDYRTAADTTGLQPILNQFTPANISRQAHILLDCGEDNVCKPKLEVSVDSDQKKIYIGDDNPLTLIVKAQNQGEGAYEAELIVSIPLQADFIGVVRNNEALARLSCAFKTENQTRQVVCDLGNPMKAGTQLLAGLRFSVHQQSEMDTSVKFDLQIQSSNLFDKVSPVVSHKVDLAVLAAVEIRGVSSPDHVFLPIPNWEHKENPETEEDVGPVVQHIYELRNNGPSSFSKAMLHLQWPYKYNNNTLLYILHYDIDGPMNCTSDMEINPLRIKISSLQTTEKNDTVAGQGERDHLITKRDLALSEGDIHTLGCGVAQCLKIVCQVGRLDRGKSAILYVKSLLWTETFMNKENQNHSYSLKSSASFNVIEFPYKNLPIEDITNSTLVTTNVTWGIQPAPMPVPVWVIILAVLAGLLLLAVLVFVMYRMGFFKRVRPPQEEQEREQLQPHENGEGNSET
Sequence of av-beta6 (P18564 22-788): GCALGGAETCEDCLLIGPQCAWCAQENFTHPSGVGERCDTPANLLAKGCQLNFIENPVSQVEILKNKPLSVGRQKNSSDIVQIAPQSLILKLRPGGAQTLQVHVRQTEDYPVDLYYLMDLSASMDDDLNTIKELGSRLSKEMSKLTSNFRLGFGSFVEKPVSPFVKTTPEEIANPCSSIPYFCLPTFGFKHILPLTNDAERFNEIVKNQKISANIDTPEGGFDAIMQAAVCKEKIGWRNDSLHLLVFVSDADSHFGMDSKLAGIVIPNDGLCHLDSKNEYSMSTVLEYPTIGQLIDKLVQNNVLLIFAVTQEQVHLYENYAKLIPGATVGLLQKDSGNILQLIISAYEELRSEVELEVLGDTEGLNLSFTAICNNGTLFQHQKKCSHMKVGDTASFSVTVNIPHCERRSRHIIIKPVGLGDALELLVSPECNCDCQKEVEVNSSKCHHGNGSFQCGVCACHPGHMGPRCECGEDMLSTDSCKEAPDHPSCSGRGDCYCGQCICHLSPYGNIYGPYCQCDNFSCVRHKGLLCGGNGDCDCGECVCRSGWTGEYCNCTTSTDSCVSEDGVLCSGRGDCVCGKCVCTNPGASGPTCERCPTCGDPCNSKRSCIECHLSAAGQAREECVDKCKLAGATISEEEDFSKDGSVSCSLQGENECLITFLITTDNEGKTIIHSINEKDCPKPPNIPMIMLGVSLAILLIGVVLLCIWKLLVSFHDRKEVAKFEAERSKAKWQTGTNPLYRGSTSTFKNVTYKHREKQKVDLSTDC

[2] = molecular target: T1, vitronectin receptor aVβ3 (Homo sapiens, UniProt P05106+P06756); assay: Pentapeptides as inhibitors of αVβ3 (immobilized), solid-phase inhibition assay; settings: αVβ3 from human placental extracts, binding of vitronectin, read-out: IC50 VN: αvβ3
T1 construct: Integrin αVβ3 is purified from human placental extracts; from tissue; host or cells: human placenta (extracts)
T1 sequence (P06756 31-889 limits assumed): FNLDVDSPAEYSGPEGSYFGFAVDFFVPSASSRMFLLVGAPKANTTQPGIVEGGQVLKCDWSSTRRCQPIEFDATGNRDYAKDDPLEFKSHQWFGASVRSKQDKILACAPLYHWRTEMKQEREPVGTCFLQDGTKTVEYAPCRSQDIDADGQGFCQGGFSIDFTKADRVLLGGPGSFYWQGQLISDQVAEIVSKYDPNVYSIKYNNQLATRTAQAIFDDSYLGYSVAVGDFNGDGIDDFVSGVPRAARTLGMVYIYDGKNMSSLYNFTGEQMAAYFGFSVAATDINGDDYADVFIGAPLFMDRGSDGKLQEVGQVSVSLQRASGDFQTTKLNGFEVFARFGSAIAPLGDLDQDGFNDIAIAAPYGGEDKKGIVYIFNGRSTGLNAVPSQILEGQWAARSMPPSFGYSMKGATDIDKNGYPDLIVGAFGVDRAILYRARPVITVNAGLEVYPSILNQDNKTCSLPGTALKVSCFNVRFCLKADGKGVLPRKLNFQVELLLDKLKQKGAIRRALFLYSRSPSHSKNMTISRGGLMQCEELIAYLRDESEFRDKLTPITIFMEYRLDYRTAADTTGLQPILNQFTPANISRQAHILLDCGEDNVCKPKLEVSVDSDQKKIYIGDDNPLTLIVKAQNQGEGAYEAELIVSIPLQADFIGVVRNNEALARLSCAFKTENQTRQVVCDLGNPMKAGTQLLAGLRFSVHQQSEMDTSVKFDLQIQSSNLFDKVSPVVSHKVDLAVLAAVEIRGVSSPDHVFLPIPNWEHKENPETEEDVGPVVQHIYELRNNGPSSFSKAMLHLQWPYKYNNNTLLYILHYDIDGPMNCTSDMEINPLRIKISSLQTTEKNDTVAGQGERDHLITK
T1 sequence (P06756 891-1048 partner limits assumed): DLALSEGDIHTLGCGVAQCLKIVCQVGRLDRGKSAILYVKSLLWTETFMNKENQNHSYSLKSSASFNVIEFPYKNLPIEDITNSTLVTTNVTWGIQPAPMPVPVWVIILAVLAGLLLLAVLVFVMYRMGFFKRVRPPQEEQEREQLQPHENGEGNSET
T1 sequence (P05106 27-788): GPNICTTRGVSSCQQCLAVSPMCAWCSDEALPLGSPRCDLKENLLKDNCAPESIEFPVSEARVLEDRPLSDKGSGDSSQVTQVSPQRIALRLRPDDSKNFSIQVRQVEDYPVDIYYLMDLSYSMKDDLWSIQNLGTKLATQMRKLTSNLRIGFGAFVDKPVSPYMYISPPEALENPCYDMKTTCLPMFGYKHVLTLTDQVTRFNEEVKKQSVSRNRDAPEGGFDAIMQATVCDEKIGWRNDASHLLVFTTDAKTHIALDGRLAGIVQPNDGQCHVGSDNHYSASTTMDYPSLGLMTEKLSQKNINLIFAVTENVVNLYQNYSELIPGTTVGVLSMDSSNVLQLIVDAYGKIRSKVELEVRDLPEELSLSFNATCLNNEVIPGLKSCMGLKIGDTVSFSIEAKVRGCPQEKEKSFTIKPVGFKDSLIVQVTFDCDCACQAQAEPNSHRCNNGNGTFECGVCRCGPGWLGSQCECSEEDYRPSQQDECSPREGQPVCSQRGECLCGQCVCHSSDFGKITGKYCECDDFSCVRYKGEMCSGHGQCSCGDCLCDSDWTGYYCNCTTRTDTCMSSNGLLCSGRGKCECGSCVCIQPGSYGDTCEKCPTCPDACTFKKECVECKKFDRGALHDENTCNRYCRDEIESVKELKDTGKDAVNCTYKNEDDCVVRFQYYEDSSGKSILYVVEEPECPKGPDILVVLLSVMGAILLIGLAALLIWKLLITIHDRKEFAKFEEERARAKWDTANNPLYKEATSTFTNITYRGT
Procedure: Preparation and Characterization of Integrin αVβ3: Integrin αVβ3 is purified from human placental extracts by affinity chromatography on GRGDSPK peptide. Extraction and chromatography follows previously published protocols except that Triton X-100 is replaced by 25 mM octyl-P-D-glucopyranoside. Bound integrin is eluted with 10 mM EDTA into 1.5-ml vials containing 25 pl of 1 M MgCl, and concentrated in Centricon 100 microconcentrators. They are stored at 4° C. in neutral buffer containing 25 mM octyl glucoside, and 0.05% sodium azide. Protein concentrations were determined by a micro BCA assay (Pierce).
Solid-phase inhibition assays are established for the inhibition of binding of the vitronectin receptor aVβ3 to their corresponding protein ligands by the cyclic peptides. Inhibitory activities (IC50) of cyclic RGD containing peptides for the binding of vitronectin (VN). Integrins are used as immobilized ligands.

human placental αVβ3 = molecular target: T2, human placental αVβ3 (Homo sapiens, UniProt P05106+P06756); assay: Receptor inhibition assay, binding of biotinylated ligands to human placental αVβ3; settings: purified human placental αVβ3, biotinylated vitronectin, 3 h at 30° C.; read-out: IC50 VN: αvβ3
T2 construct: Purified human integrin αVβ3 from term placenta; from tissue; host or cells: human term placenta
T2 sequence (P06756 31-889 limits assumed): as the sequence (P06756 31-889 limits assumed) above
T2 sequence (P06756 891-1048 partner limits assumed): as the sequence (P06756 891-1048 partner limits assumed) above
T2 sequence (P05106 27-788): as the sequence (P05106 27-788) above
Procedure: After 3 h at 30° C. bound ligand was measures by anti-biotin—alkaline phosphatase detection.

integrin αVβ3 = integrin αVβ3 (Homo sapiens, UniProt P05106+P06756); assay: Isolated integrin-ligand binding assay (ligand inhibition, immobilized integrin, biotinylated vitronectin); settings: immobilized recombinant human integrin, biotinylated human serum vitronectin as ligand
Sequence of integrin αVβ3 (P06756 31-1048): as the sequence (P06756 31-1048) above
Sequence of integrin αVβ3 (P05106 27-788): as the sequence (P05106 27-788) above
Procedure: i) Isolated Integrin-Ligand Binding Assay The production of recombinant human integrin is known in the literature. […] In brief, 96-well ELISA plates are coated by adsorption from neutral aqueous buffers of 1 microg/ml integrin. After blocking residual sites on the plate with BSA, biotinylated ligands (1 microg/ml) are added in the presence or absence of serial dilutions of inhibitor, and after incubation and washing, bound biotin is detected with peroxidase-coupled anti-biotin antibody and TMB substrate.

SEPRASE gene expression, Compound vs. Control, ratio Log(2) value [1]: 0.546 | activity as av-beta6 ligand (av-beta6): low active
Compound: N=C(N)NCCC[C@@H]1NC(=O)C2(CCCCC2)NC(=O)[C@@H](Cc2ccccc2)NC(=O)[C@H](CC(=O)O)NC(=O)CNC1=O [CPPC 1, Cyclo-(Arg-Gly-Asp-DPhe-Acha)]
ADAM9 gene expression, Compound vs. Control, ratio Log(2) value [1]: 0.4854 | ASC gene expression, Compound vs. Control, ratio Log(2) value [1]: −0.304 | BCL2L1 gene expression, Compound vs. Control, ratio Log(2) value [1]: 0.263 | BMP-3 gene expression in treated skin [1]: downregulated | C19orf10 gene expression, Compound vs. Control, ratio Log(2) value [1]: 0.263 | CASP8 gene expression, Compound vs. Control, ratio Log(2) value [1]: −0.304 | CCNB2 gene expression, Compound vs. Control, ratio Log(2) value [1]: 0.4647 | CD81 gene expression, Compound vs. Control, ratio Log(2) value [1]: 0.251 | CDK2 gene expression, Compound vs. Control, ratio Log(2) value [1]: 0.2265 | CDK4 gene expression, Compound vs. Control, ratio Log(2) value [1]: 0.1375 | CLU gene expression, Compound vs. Control, ratio Log(2) value [1]: 0.4436 | DDR2 gene expression, Compound vs. Control, ratio Log(2) value [1]: 0.2869 | E2F3 gene expression, Compound vs. Control, ratio Log(2) value [1]: −0.3959 | EGF gene expression, Compound vs. Control, ratio Log(2) value [1]: −0.2345 | ELA2 gene expression, Compound vs. Control, ratio Log(2) value [1]: −0.2345 | FBLN1_4 gene expression, Compound vs. Control, ratio Log(2) value [1]: 0.516 | FBLN2 gene expression, Compound vs. Control, ratio Log(2) value [1]: 0.3785 | FGF1 gene expression, Compound vs. Control, ratio Log(2) value [1]: 0.5059 | FLOT2 gene expression, Compound vs. Control, ratio Log(2) value [1]: 0.4542 | GDF10 gene expression, Compound vs. Control, ratio Log(2) value [1]: −0.2863 | IGFBP4 gene expression, Compound vs. Control, ratio Log(2) value [1]: 0.4854 | IL2 gene expression, Compound vs. Control, ratio Log(2) value [1]: −0.5778 | IL6 gene expression, Compound vs. Control, ratio Log(2) value [1]: 0.4854 | IL7 gene expression, Compound vs. Control, ratio Log(2) value [1]: −0.3585 | IL8 gene expression, Compound vs. Control, ratio Log(2) value [1]: 0.3219 | IL17A gene expression, Compound vs. Control, ratio Log(2) value [1]: −0.6666 | JUN gene expression, Compound vs. Control, ratio Log(2) value [1]: −0.5778 | KRT2A gene expression, Compound vs. Control, ratio Log(2) value [1]: 0.4005 | KRT9 gene expression, Compound vs. Control, ratio Log(2) value [1]: −0.2688 | KRT19 gene expression, Compound vs. Control, ratio Log(2) value [1]: 0.3334 | LCN2 gene expression, Compound vs. Control, ratio Log(2) value [1]: −0.5564 | MCL1 gene expression, Compound vs. Control, ratio Log(2) value [1]: 0.3674 | PGF gene expression, Compound vs. Control, ratio Log(2) value [1]: 0.2141 | PTGS2 gene expression, Compound vs. Control, ratio Log(2) value [1]: 0.4222 | QSOX1 gene expression, Compound vs. Control, ratio Log(2) value [1]: 0.433 | S100A12 gene expression, Compound vs. Control, ratio Log(2) value [1]: −0.2515 | SDCBP gene expression, Compound vs. Control, ratio Log(2) value [1]: 0.3896 | SOCS1 gene expression, Compound vs. Control, ratio Log(2) value [1]: 0.3334 | SPARC gene expression, Compound vs. Control, ratio Log(2) value [1]: 0.3674 | SPRR1A gene expression, Compound vs. Control, ratio Log(2) value [1]: −0.304 | STAT1 gene expression, Compound vs. Control, ratio Log(2) value [1]: 0.3103 | STAT5B gene expression, Compound vs. Control, ratio Log(2) value [1]: −0.1844 | TNF gene expression, Compound vs. Control, ratio Log(2) value [1]: −0.304 | TNFC gene expression, Compound vs. Control, ratio Log(2) value [1]: −0.3401 | TNFRSF1B gene expression, Compound vs. Control, ratio Log(2) value [1]: −0.3585 | TNFRSF25 gene expression, Compound vs. Control, ratio Log(2) value [1]: −0.2688 | TNFSF10 gene expression, Compound vs. Control, ratio Log(2) value [1]: −0.2688 | TNFSF13B gene expression, Compound vs. Control, ratio Log(2) value [1]: −0.2688 | TUBB gene expression, Compound vs. Control, ratio Log(2) value [1]: 0.6599 | TXLN gene expression, Compound vs. Control, ratio Log(2) value [1]: −0.8365 | bone morphogenic proteins (BMPs) gene expression in treated skin [1]: downregulated | fibulins gene expression in treated skin [1]: upregulated | number of deregulated genes selected (of 1312 genes on the microarray) ([1]; p<0.05, at least […] deregulation): 345 | activity as av-beta3/5 ligand (av-beta3/5): highly active

IC50 [2]: > 240000 nM
Compound: CC(C)[C@@H]1NC(=O)[C@H](Cc2ccccc2)NC(=O)[C@H](CC(=O)O)NC(=O)[C@@H](C)NC(=O)[C@H](CCCNC(=N)N)NC1=O [Cyclo-(Arg-DAla-Asp-Phe-Val)] (cyclo(R[dA]DFV))

IC50 (human placental αVβ3): 3 nM
Compound: CC(C)(C)[C@@H]1NC(=O)[C@@H](Cc2ccc(F)cc2)NC(=O)[C@H](CC(=O)O)NC(=O)CNC(=O)[C@H](CCCNC(=N)N)NC1=O [Cyclo-(Arg-Gly-Asp-DPhe(4-F)-Tle)]

IC50 (integrin αVβ3): 24 nM
Compound: C[C@H]1C(=O)N[C@@H](CCCNC(=N)N)C(=O)NCC(=O)N[C@@H](CC(=O)O)C(=O)N[C@H](Cc2ccccc2)C(=O)N1C [Cyclo-(Arg-Gly-Asp-DPhe-(NMe)Ala)]
